pIC50: −log10 of the molar value.
Assays:
[1] = target: T1, Type-1 angiotensin II receptor (Homo sapiens, UniProt P30556); assay: (§1) Displacement of [125I-Sar1-Ile8]Ang2 from human AT1 receptor expressed in HEK293 cell membrane incubated for 1 hr by gamma counting method; assay type: cell membranes; conditions: for IC50: read-out: pIC50 (converted)
T1 sequence (P30556 whole entry): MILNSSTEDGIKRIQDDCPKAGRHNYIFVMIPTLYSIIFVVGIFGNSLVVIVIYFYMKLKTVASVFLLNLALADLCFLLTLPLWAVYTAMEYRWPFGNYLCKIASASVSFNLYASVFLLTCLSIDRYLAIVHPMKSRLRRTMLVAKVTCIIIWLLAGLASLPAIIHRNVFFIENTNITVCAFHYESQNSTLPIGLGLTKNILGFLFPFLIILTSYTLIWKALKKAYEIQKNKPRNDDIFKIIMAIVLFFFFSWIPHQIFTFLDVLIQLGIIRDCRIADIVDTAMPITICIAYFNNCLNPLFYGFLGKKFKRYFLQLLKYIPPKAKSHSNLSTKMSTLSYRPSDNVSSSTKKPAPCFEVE

[2] = target: T2, Type-1 angiotensin II receptor (Homo sapiens) (UniProt P30556); assay: as §1; assay type: cell membranes
T2 sequence (whole entry): T1 sequence (P30556 whole entry)

SMILES | IC50 [1] [nM] | inhibition [2] | pIC50 ([1]; read-out: IC50)
Cc1ccc(C)c(NC(=O)CN(C)C(=O)c2ccc(S(=O)(=O)N3CCCCCC3)cc2)c1 | 2190 | Dose-dependent effect | –
Cc1ccc(CN(c2ccc(C(=O)NCc3ccccn3)cc2)S(C)(=O)=O)cc1 | 2090 | Dose-dependent effect | –
CN(Cc1cn(-c2ccccc2)nc1-c1ccc(Cl)cc1)C(=O)CCC(=O)O | – | Dose-dependent effect | 6.70
CN(Cc1cn(-c2ccccc2)nc1-c1ccc(F)cc1)C(=O)CCC(=O)O | 2570 | Dose-dependent effect | –

Reference: ChEMBL document CHEMBL3826874, “Exploring new scaffolds for angiotensin II receptor antagonism” (Bioorg Med Chem, 2016)
